Source: BindingDB's records for doi:10.1016/j.chembiol.2006.05.015 (The Scripps Research Institute, 2006)

Experiments:
[1] = biological target: T1, Tyrosine-protein kinase ABL1 [1-999,Q252H] (Homo sapiens, UniProt P00519, Q252H); assay: Biochemcial Assay; conditions: pH 7.5
T1 construct: 1-999
Excerpt: An in vitro kinase assay using dephophorylated conformationally inactive Abl kinase was obtained by treating pure recombinant Abl with Yersinia […] phosphatase from Calbiochem.

[2] = biological target: T1, Tyrosine-protein kinase ABL1 [1-999,Q252H]; assay: Biochemcial Assay; conditions: pH 7.5; remark: listed apart in the source
Excerpt: An in vitro kinase assay using phosphorylated recombinant human Abl kinase domains to phosphorylate a peptide substrate.

| IC50 [1] | IC50 [2] | Compound |
| --- | --- | --- |
| > 5000 nM | > 5000 nM | O=[N+]([O-])c1ccc(Oc2ncnc3[nH]ccc23)cc1 [Type I progenitor, 4] |
| > 5000 nM | > 5000 nM | O=C(Nc1ccc(N2CCOCC2)cc1)c1cc2cnc3[nH]ccc3c2s1 [Type I progenitor, 7] |
| 5 nM | 152 nM | Cc1ccc(NC(=O)c2cccc(C(F)(F)F)c2)cc1Nc1nccc(-c2cccnc2)n1 [Type II inhibitor, 2] |
| 1360 nM | > 5000 nM | Cc1ccc(N(C)C(=O)c2cccc(C(F)(F)F)c2)cc1Nc1nccc(-c2cccnc2)n1 [Type II inhibitor, 3] |
| 374 nM | > 5000 nM | O=C(Nc1ccc(Oc2ncnc3[nH]ccc23)cc1)Nc1cccc(C(F)(F)F)c1 [Type II inhibitor, 5] |
| > 5000 nM | > 5000 nM | O=C(Cc1cccc(C(F)(F)F)c1)Nc1ccc(Oc2ncnc3[nH]ccc23)cc1 [Type II inhibitor, 6] |
| 154 nM | > 5000 nM | Cc1cc(NC(=O)c2cccc(C(F)(F)F)c2)ccc1NC(=O)c1cc2cnc3[nH]ccc3c2s1 [Type II inhibitor, 8] |
| > 5000 nM | > 5000 nM | Cc1cc(N(C)C(=O)c2cccc(C(F)(F)F)c2)ccc1NC(=O)c1cc2cnc3[nH]ccc3c2s1 [Type II inhibitor, 10] |

Continued, compound first:

| Compound | IC50 [1] | IC50 [2] |
| --- | --- | --- |
| Cc1ccc(Cl)cc1Nc1nccc(-c2cccnc2)n1 [Type I progenitor, 1] | > 5000 nM | > 5000 nM |
| CC(O)c1cccc(Nc2ncc3cc(-c4c(Cl)cccc4Cl)c(=O)n(C)c3n2)c1 (stereo unspecified) [Type I progenitor, 11] | 5.8 nM | 5.7 nM |
| CC(O)c1cccc(Nc2ncc3cc(-c4cc(NC(=O)c5cccc(C(F)(F)F)c5)ccc4Cl)c(=O)n(C)c3n2)c1 (stereo unspecified) [Type II inhibitor, 12] | 27.2 nM | 19.6 nM |
| CC(O)c1cccc(Nc2ncc3cc(-c4cc(N(C)C(=O)c5cccc(C(F)(F)F)c5)ccc4Cl)c(=O)n(C)c3n2)c1 (stereo unspecified) [Type II inhibitor, 13] | 9.1 nM | 150 nM |
| Cc1ccc(N(C)C(=O)c2cccc(C(F)(F)F)c2)cc1N1Cc2cnc(N)nc2N(C)C1=O [Type II inhibitor, 15] | > 5000 nM | > 5000 nM |
